Laboratory results: PMC11320730, “5-Methoxy-2-aminoindane Reverses Diet-Induced Obesity and Improves Metabolic Parameters in Mice: A Potential New Class of Antiobesity Therapeutics” (ACS Pharmacology & Translational Science, 2024)

How the values were obtained:
Assay type in all cases: in vivo
[1] = test system: DIO C57BL/6 mice; experiment: Blood biochemistry in DIO mice; settings: 40 mg/kg/day
Procedure: (§1) Male C57BL/6 mice were used to establish DIO by feeding them a high-fat diet (HFD; 60% cal/L fat, 20% cal/L protein, and 20% cal/L carbohydrates; Research Diet, D12492) for 18 weeks. After this period, mice were treated with either vehicle (sterile water, N = 8) or MEAI (N = 11) daily for 28 days by gavage at a dose of 40 mg/kg/day. Age-matched control mice (N = 10) on a standard diet (STD; 14% kcal fat, 24% kcal protein, 62% kcal carbohydrates; NIH-31 rodent diet) received vehicle daily. The body weight of all mice was monitored daily, and total body fat and lean mass were determined by EchoMRI-100H (Echo Medical Systems LLC, Houston, Texas, USA). On day 29, at the end of the experimental period, mice were euthanized by a cervical dislocation under anesthesia. The kidneys, brain, liver, and fat pads were removed and weighed, and samples were either snap-frozen or fixed in buffered 4% formalin. Trunk blood was collected to determine the biochemical parameters.
Serum levels of alanine aminotransferase (ALT), aspartate aminotransferase (AST), alkaline phosphatase (ALP), cholesterol, triglycerides, high-density lipoprotein (HDL), and low-density lipoprotein (LDL) were quantified post-termination using the Cobas C-111 chemistry analyzer (Roche, Switzerland). Fasting blood glucose was measured using the Contour glucometer (Bayer, Pittsburgh, Pennsylvania, USA), while serum insulin was determined using an Ultra-Sensitive Mouse Insulin ELISA kit (Cat# 90080, Crystal Chem, Inc., Elk Grove Village, Illinois, USA). Serum-free fatty acid content was determined using a Free Fatty Acid Assay Kit (Cat# ab65341, Abcam, Cambridge, UK).

[2] = test system: DIO C57BL/6 mice; experiment: Glucose tolerance test (ipGTT) and insulin tolerance test (ipITT) in DIO mice; settings: 40 mg/kg/day
Procedure: as §1
On day 25 of the experiment, mice were subjected to an overnight fasting and then injected with glucose (1.5 g/kg i.p.) on the following day (day 26). Blood glucose levels were determined at 0, 15, 30, 45, 60, 90, and 120 min after injection using the Contour glucometer (Bayer, Pittsburgh, Pennsylvania, USA). The mice were then fasted for 6 h the next day (day 27) before being administered insulin (0.75 U/kg, i.p.; Actrapid vials, Novo Nordisk A/S, Bagsværd, Denmark). Blood glucose levels were determined at the same intervals as those described above. To assess insulin resistance, the homeostasis model assessment insulin resistance (HOMA-IR) was calculated as fasting serum insulin ([μU/mL] × fasting plasma glucose [mmol/L]/22.5). The relative insulin sensitivity index (ISI) was calculated as 1/(glucose × insulin) × 1000, with glucose expressed as mg/dL and insulin as mU/L.

[3] = test system: C57Bl/6 mice; experiment: Acute effect of MEAI on food and water intake and metabolic parameters (Promethion); settings: lean male mice, vs vehicle
Procedure: Male 6-week-old C57Bl/6 mice (Harlan, Israel) were maintained in standard conditions under a 12 h light/dark cycle and fed ad libitum. A total of 32 animals were divided into four experimental groups (N = 8 mice per group) receiving single doses of 40, 60, or 100 mg/kg of MEAI or vehicle (sterile water), which was administered via oral gavage 2 h prior to the dark phase. The animals were monitored for 48 h postdose for drug tolerability, food and water intakes, and activity and metabolic parameters. At the end of the experiment, the animals were euthanized, and tissues (brain, liver, fat, and kidney) and blood were collected and stored in a frozen state for future analyses.
The metabolic profiles and food and water intakes of the mice were assessed using the Promethion High-Definition Behavioral Phenotyping System (Sable Instruments, Inc., Las Vegas, Nevada, USA). MetaScreen software version 2.2.18.0 was used for data acquisition and instrument control. Raw data were processed using ExpeData version 1.8.4 with an analysis script detailing all aspects of the data transformation. Mice with free access to food and water, housed at temperatures of (22–23 °C), were subjected to a standard 12 h light/12 h dark cycle, which consisted of a 48 h acclimation period followed by 24 h of sampling after dosing. Respiratory gases were measured using the GA-3 gas analyzer (Sable Systems, Inc., Las Vegas, Nevada, USA) employing a pull-mode negative-pressure system. Airflow was measured and controlled by an FR-8 instrument (Sable Systems, Inc., Las Vegas, Nevada, USA) at a flow rate of 2000 mL/min. Water vapor was continuously measured, and its dilution effect on O2 and CO2 was mathematically compensated. Respiratory exchange rate (RER) was calculated as the ratio of CO2 produced (VCO2) to O2 consumed (VO2) using eq 1): [drawing 1] 1
Total energy expenditure (TEE) was calculated using VO2 and RER, according to eq 2: [drawing 2] 2
Fat oxidation (FO) and carbohydrate oxidation (CHO) were calculated using VO2 and VCO2 based on eqs 3 and 4, respectively: [drawing 3] 3 [drawing 4] 4
Energy balance and energy flux were derived from eqs 5 and 6: [drawing 5] 5 [drawing 6] 6

[4] = test system: DIO C57BL/6 mice; experiment: Effect of MEAI on obesity: body weight and body composition (EchoMRI) in DIO mice; settings: 28 days
Procedure: as §1

Q: How did the insulin levels [1] turn out when `COc1ccc2c(c1)CC(N)C2.Cl` (stereo not drawn) [MEAI, 2,3-Dihydro-5-methoxy-1H-inden-2-amine hydrochloride] was run?
A: reduced

Q: What about the circulating leptin levels ([1]; 28 days, vs HFD vehicle) of the same molecule?
A: effectively countered the HFD-induced elevation

Q: What about the serum serotonin levels ([1]; 28 days, vs HFD vehicle) of the same molecule?
A: did not significantly alter

Q: And the “circulating levels of adiponectin” value ([1]; across all groups)?
A: remained unchanged

Q: And the circulating triglyceride levels ([1]; across all groups)?
A: remained largely unchanged

Q: What about the HDL levels ([1]; serum) of the same molecule?
A: without a significant change

Q: What about the HDL-to-LDL ratio ([1]; serum) of the same molecule?
A: positive shift

Q: What about the free fatty acids ([1]; serum) of the same molecule?
A: trend toward reduced

Q: What about the total cholesterol levels ([1]; serum, did not reach statistical significance) of the same molecule?
A: downward trend

Q: What about the LDL ([1]; serum, vs HFD vehicle) of the same molecule?
A: significant decrease

Q: And the ALP levels ([1]; serum, vs HFD-vehicle)?
A: significantly reduced

Q: And the ALT levels ([1]; serum, vs HFD-vehicle)?
A: did not significantly alter

Q: What about the AST levels ([1]; serum, vs HFD-vehicle) of the same molecule?
A: did not significantly alter

Q: And the HOMA-IR score [2]?
A: improved

Q: And the ISI score [2]?
A: improved

Q: What about the “fasting blood glucose levels” value [2] of the same molecule?
A: reduced

Q: And the “glucose metabolism (glucose and insulin tolerance tests)” value ([2]; days 26-27)?
A: significant improvement

Q: And the “hourly average energy expenditure (TEE/h)” value ([3]; single oral dose 40, 60 or 100 mg/kg, across 24 h)?
A: significant dose-dependent increase

Q: And the “feeding patterns (food intake)” value ([3]; single oral dose 40, 60 or 100 mg/kg, dark and light phases)?
A: did not reach statistical significance

Q: And the water consumption ([3]; single oral dose 40, 60 or 100 mg/kg)?
A: no notable changes

Q: And the “respiratory exchange ratio (RER)” value ([3]; single oral dose 60 and 100 mg/kg, light phase)?
A: markedly increased

Q: What about the “carbohydrate oxidation (CHO) rate” value ([3]; single oral dose, higher doses) of the same molecule?
A: elevations

Q: And the “fat oxidation (FO) rate” value ([3]; single oral dose, higher doses)?
A: elevations

Q: What about the “total daily TEE” value ([3]; single oral dose, particularly at 60 mg/kg) of the same molecule?
A: significant elevation

Q: What about the “carbon dioxide production (VCO2)” value ([3]; single oral dose) of the same molecule?
A: increases

Q: What about the energy balance ([3]; single oral dose) of the same molecule?
A: did not lead to immediate changes

Q: What about the “oxygen consumption (VO2)” value ([3]; single oral dose) of the same molecule?
A: increases

Q: What about the “decrease in total body weight” value ([4]; DIO mice, 40 mg/kg/day by gavage, compared to obese vehicle-treated group) of the same molecule?
A: ~15%

Q: And the “adiposity associated with obesity” value ([4]; DIO mice, 40 mg/kg/day)?
A: reduced

Q: And the “lean body mass ratio” value ([4]; DIO mice, 40 mg/kg/day)?
A: maintaining

Q: And the net lean mass ([4]; DIO mice, 40 mg/kg/day)?
A: maintaining

Q: And the overall fat mass ([4]; DIO mice, 40 mg/kg/day)?
A: reducing

Q: And the body weight ([4]; HFD-fed (DIO) mice, 40 mg/kg/day by gavage)?
A: significantly reduced
